Patent US20090030067A1, “Anti-proliferative combination therapy comprising satraplatin or jm118 and a taxane” ((GPC Biotech AG), priority 2005, published 2009)

Experiments:
[1] = system: A129 cp80; experiment: SRB cytotoxicity assay, cisplatin-resistant A129 cp80 cell line; type: cell-based
Protocol: The parental non-mutated cell line A129 was used as control.
Briefly, cells were plated in 96 well dishes 24 hours prior to compound addition. The assay was terminated with the addition of cold TCA to a final concentration of 10% and the plates were incubated for one hour at 4° C. The plates were then washed 5 times with water and 100 μl of a Sulforhodamine B solution ([…]) was added to each well. The plate was then incubated for 10 minutes at room temperature before removal of unbound dye by washing with 1% acetic acid. The bound dye was solubilized with 10 mM Trizma base and the absorbance read at OD570.

[2] = system: A129; experiment: SRB cytotoxicity assay, parental A129 cell line; type: cell-based; conditions: 48 hours, mean and standard deviation
[3] = system: human H460 non small cell lung cancer (NSCLC) cell line; experiment: H460 xenograft model, satraplatin and paclitaxel
[4] = system: human non small cell lung cancer (NSCLC) cell line H460; experiment: H460 xenograft model, satraplatin and docetaxel
[5] = satraplatin 35 mg/kg/day po, Exp. B
[6] = satraplatin 40 mg/kg/day po, Exp. B
[7] = satraplatin 50 mg/kg/day po, Exp. A
[8] = paclitaxel 25 mg/kg/day iv, Exp. A
[9] = paclitaxel 25 mg/kg/day iv, Exp. B
[10] = paclitaxel 40 mg/kg/day iv, Exp. A
[11] = paclitaxel 40 mg/kg/day iv, Exp. B
[12] = docetaxel 25 mg/kg iv d7, d14, of 10 animals

N.N.[Cl][Pt][Cl] [Cisplatin, cisplatin]
IC50 ([1]; 48 hours, SRB assay, mean and standard deviation): 15.1 µM | RR (relative resistance) ([1]; A129 cp80 versus A129): 80 +/− 25 | IC50 [2]: 0.23 µM

CC(=O)[O][Pt]([NH2])([Cl])([Cl])([NH]C1CCCCC1)[O]C(C)=O [Satraplatin, satraplatin]
Max % BW loss [3, 5]: 12% | Toxic deaths/total [3, 5]: 0/10 | Max % BW loss [3, 6]: 16% | Toxic deaths/total [3, 6]: 4/10 | Max % BW loss [3, 7]: 26% | Toxic deaths/total [3, 7]: 9/10 | Max % BW loss ([4]; satraplatin 25 mg/kg po d8-12, d15-19): 6.1% | Toxic Deaths ([4]; satraplatin 25 mg/kg po d8-12, d15-19, of 10 animals): 0 | Max % BW loss ([4]; satraplatin 35 mg/kg po d8-12, d15-19): 9.7% | Toxic Deaths ([4]; satraplatin 35 mg/kg po d8-12, d15-19, of 10 animals): 1

CC(=O)O[C@H]1C(=O)[C@@]2(C)[C@H]([C@H](OC(=O)c3ccccc3)[C@]3(O)C[C@H](OC(=O)[C@H](O)[C@@H](NC(=O)c4ccccc4)c4ccccc4)C(C)=C1C3(C)C)[C@]1(OC(C)=O)CO[C@@H]1C[C@@H]2O [Paclitaxel, paclitaxel]
LCK [3, 8]: 0.6 | Max TGI % [3, 8]: 56% | Toxic deaths/total [3, 8]: 0/10 | LCK [3, 9]: 0.7 | Max TGI % [3, 9]: 47% | Toxic deaths/total [3, 9]: 0/10 | LCK [3, 10]: 0.7 | Max TGI % [3, 10]: 64% | Toxic deaths/total [3, 10]: 0/10 | LCK [3, 11]: 1.0 | Max TGI % [3, 11]: 59% | Toxic deaths/total [3, 11]: 0/10 | tumor growth delay equivalent, LCK ([3]; paclitaxel 40 mg/kg/day, in two experiments): 0.7-1.0 LCK | tolerability and activity as single agent ([3]; paclitaxel at both doses tested, 25 and 40 mg/kg/day): tolerated and active

CC(=O)O[C@@]12CO[C@@H]1C[C@H](O)[C@@]1(C)C(=O)[C@H](O)C3=C(C)[C@@H](OC(=O)[C@H](O)[C@@H](NC(=O)OC(C)(C)C)c4ccccc4)C[C@@](O)([C@@H](OC(=O)c4ccccc4)[C@H]21)C3(C)C [Docetaxel, N-debenzoyl-N-tert-butoxycarbonyl-10-deacetyl paclitaxel]
LCK (Td = 2.7) ([4]; docetaxel 25 mg/kg iv d7, d14): 0.76 | Max TGI (d) ([4]; docetaxel 25 mg/kg iv d7, d14, maximum observed on day 13): 64.7 (13) % | CR (number of animals with complete tumor regression) [4, 12]: 0 | Cure [4, 12]: 0 | PR (number of animals with partial tumor regression) [4, 12]: 0 | Toxic Deaths [4, 12]: 0
